Reference: US7829297B2, “Treatment of cancers expressing p95 ErbB2” (GlaxoSmithKline LLC, priority 2003, dated 2010)

Legend:
p95^ErbB2 [1] = assay: Western blot of p95ErbB2 in BT474 cells; type: cell-based, human
Procedure: (§1) Equal amounts of protein were separated by SDS-PAGE and then ErbB2, p95^ErbB2, pTyr/p95^ErbB2, and pTyr/ErbB2 steady state protein levels were assessed by Western blot. […] Along the left side of the lanes, the uppermost arrow indicates p185; lower arrowhead indicates p95. Molecular weights are indicated on the right side of the figure.

p95^ErbB2 [2] = assay: p95ErbB2 in BT474 tumor xenografts (Western blot); type: in vivo, mice
Source text: (§2) BT474 tumor xenografts were established in CD-1 nude mice.

[3] = system: MAPK-Erk1/2 and PI3K-AKT pathways, cyclin D1/2; assay: Downstream signaling in BT474 tumor xenografts (Western blot); type: in vivo, mice
Procedure: Equal amounts of protein from tumor xenograft whole cell extracts were separated by SDS-PAGE and steady state protein levels of total and phosphorylated forms Erk1/2 and AKT were assessed by Western blot. Cyclin D1/2 steady state protein levels were also determined.

Erk1/2 and AKT = assay: Activation of Erk1/2 and AKT by EGF and heregulin in BT474 cells; type: cell-based, human; conditions: 1 μM
BT474 cells = assay: Proliferation of BT474 cells; type: cell-based, human
[4] = system: solid tumor overexpressing or expressing activated EGFR or ErbB2; assay: Open label, multi-dose clinical trial in subjects with cancer; type: in vivo, human
p95 = assay: Western blot of phospho-p95 in S1 cells; conditions: 5 μM, 24 hours
p185^ErbB2 [5] = biological target: T1, p185^ErbB2 (Homo sapiens, UniProt P04626); assay: Western blot of phospho-p185ErbB2 in S1 cells; conditions: 5 μM, 24 hours
p185^ErbB2 [6] = biological target: T1, p185^ErbB2; assay: Western blot of phospho-p185ErbB2 in Hb4a cells; conditions: parental Hb4a cells, 5 μM, 24 hours
ErbB3 = ErbB3 phosphorylation in BT474 tumor xenografts (IP Western blot); conditions: 100 mg/kg/dose, compared with vehicle
Procedure: Tumors were removed 4 hours after the last dose, frozen in liquid Nitrogen, and stored at −80° C. until analysis. For the terminal biopsy, mice were euthanized with CO2 inhalation. Cell extracts were prepared by homogenization in RIPA buffer at 4° C.
As shown in FIG. 6a-6c, the activation-state of EGFR, p185^ErbB2, p95^ErbB2, and ErbB3 was assessed by IP Western blot.

p185^ErbB2 [7] = biological target: T1, p185^ErbB2; assay: Western blot of p185ErbB2 in BT474 cells; type: cell-based; design: The full-length ErbB2 receptor (p185^ErbB2); endogenous in cells; host or cells: BT474
Procedure: as §1

p185^ErbB2 [8] = biological target: T1, p185^ErbB2; assay: p185ErbB2 in BT474 tumor xenografts (Western blot); type: in vivo, mice; design: The full-length ErbB2 receptor (p185^ErbB2); from tissue; host or cells: BT474 tumour xenografts in mice; conditions: GW572016 100 mg/kg/dose PO or trastuzumab IP
Source text: as §2

[9] = 24 hours, 0.5 μM GW572016 or 10 μg/ml trastuzumab
[10] = GW572016 or trastuzumab (10 mg/kg)
[11] = 11 breast cancer subjects previously treated with trastuzumab

T1 sequence (P04626 23-1255): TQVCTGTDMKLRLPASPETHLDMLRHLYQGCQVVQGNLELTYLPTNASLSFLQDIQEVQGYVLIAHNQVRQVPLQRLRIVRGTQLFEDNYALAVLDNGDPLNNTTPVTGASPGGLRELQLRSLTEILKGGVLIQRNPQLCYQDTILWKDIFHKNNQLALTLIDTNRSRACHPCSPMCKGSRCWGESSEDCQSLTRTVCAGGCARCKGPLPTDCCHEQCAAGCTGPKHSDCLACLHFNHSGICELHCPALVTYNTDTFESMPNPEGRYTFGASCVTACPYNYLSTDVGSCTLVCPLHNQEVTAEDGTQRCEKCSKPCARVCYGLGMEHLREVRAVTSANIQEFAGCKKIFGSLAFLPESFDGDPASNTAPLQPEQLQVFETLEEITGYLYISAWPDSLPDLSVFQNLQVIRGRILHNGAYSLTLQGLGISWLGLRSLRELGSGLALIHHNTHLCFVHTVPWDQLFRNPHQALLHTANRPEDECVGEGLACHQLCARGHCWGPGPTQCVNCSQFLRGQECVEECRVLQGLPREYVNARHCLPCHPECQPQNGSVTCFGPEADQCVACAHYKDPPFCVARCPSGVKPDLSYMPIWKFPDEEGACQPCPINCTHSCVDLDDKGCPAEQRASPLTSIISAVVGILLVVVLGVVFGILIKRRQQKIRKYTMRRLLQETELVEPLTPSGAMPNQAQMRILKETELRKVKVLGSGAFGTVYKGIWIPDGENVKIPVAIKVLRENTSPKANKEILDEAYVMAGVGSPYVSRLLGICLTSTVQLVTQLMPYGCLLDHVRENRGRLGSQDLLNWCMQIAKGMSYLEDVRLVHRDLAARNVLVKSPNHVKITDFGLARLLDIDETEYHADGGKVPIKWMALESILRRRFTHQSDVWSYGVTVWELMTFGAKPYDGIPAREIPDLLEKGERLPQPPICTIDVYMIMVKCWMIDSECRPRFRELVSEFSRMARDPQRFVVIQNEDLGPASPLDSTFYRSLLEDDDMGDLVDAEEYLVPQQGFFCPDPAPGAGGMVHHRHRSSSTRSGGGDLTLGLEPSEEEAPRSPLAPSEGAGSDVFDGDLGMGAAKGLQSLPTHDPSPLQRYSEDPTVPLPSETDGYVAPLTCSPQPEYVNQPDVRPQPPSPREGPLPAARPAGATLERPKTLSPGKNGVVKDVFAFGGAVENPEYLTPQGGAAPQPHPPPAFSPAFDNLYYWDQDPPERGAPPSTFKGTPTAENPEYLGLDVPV

Structure (SMILES): CS(=O)(=O)CCNCc1ccc(-c2ccc3ncnc(Nc4ccc(OCc5cccc(F)c5)c(Cl)c4)c3c2)o1 [GW572016, N-{3-Chloro-4-[(3-fluorobenzyl)oxy]phenyl}-6-[5-({[2-(methylsulfonyl)ethyl]amino}methyl)-2-furyl]-4-quinazolinamine]
- phosphorylation of p95ErbB2 in presence and absence of HRG and EGF (p95^ErbB2 [1]; 1 μM, 16 hours, ErbB2 IP): inhibited
- HRG-induced p95ErbB2 phosphorylation (p95^ErbB2 [1]; 1 μM, 16 hours, HRG 5 nM 15 min, ErbB3 IP): partially blocked
- tyrosine phosphorylation of p95ErbB2 (anti-pTyr mAb) (p95^ErbB2 [1]; [9]): inhibited
- steady state protein levels of total p95ErbB2 (p95^ErbB2 [2]; GW572016 100 mg/kg/dose PO or trastuzumab IP): unchanged
- phospho-p95ErbB2 steady state protein levels (p95^ErbB2 [2]; GW572016 100 mg/kg/dose PO, 100 mg/kg): markedly inhibited
- Y1248 phosphorylation in p95ErbB2 (p95^ErbB2 [2]; GW572016 100 mg/kg/dose or trastuzumab): inhibited
- total steady state protein levels of Erk1/2 and AKT [3]: without affecting
- cyclin D steady state protein levels [3, 10]: inhibited
- p-AKT steady state protein levels [3, 10]: inhibited
- p-Erk1/2 steady state protein levels [3, 10]: inhibited
- EGF-induced increase of p-Erk1/2 steady state protein levels (Erk1/2 and AKT; EGF 50 ng/ml 15 minutes): blocked
- HRG-induced AKT phosphorylation (Erk1/2 and AKT; HRG): partially inhibited
- proliferation of BT474 cells (BT474 cells): inhibited
- reversal of antiproliferative effect in the presence of EGF (BT474 cells; BT474 cells): not completely reversed
- effect of prolonged incubation on protection by heregulin (BT474 cells; BT474 cells, 1 μM, prolonged incubation (data not shown)): abrogated the protective effects of heregulin
- reversal of inhibitory effects by addition of heregulin (BT474 cells; BT474 cells, 72 hour assay): partially reversed
- Partial Responses among breast cancer subjects [4, 11]: three
- Stable Disease among breast cancer subjects [4, 11]: four
- breast cancer subjects exhibiting responses, of eleven ([4]; 11 breast cancer subjects, all previously treated with trastuzumab, oral ditosylate salt, daily): seven
- response of bone metastases ([4]; Patient No. 361, 1200 mg/day): did not respond
- time to disappearance of all subcutaneous nodules ([4]; Patient No. 361, 1200 mg/day): ≤ 28 days
- anterior abdominal wall nodules ([4]; Patient No. 372, 1200 mg/day): improved
- decrease in two right breast masses ([4]; Patient No. 372, 1200 mg/day, August to October 2002): 70%
- stable disease, number of subjects ([4]; adenocarcinoma of unknown primary origin): 1
- stable disease, number of subjects ([4]; colorectal cancer): 2
- stable disease, number of subjects ([4]; granular cell cancer): 1
- stable disease, number of subjects ([4]; head and neck cancer): 1
- total responses out of 33 subjects ([4]; initial 33 subjects with validated responses, all tumor types): 15
- stable disease, number of subjects ([4]; lung cancer): 1
- stable disease, number of subjects ([4]; ovarian cancer): 2
- p95 phosphorylation (p95): inhibited
- p185ErbB2 phosphorylation (p185^ErbB2 [5]): inhibited
- phosphorylation of p185ErbB2 (p185^ErbB2 [6]): inhibited
- ErbB3 tyrosine phosphorylation (ErbB3): markedly inhibited
- phosphorylation of p185ErbB2 in presence and absence of HRG and EGF (p185^ErbB2 [7]; 1 μM, 16 hours, ErbB2 IP): inhibited
- p185ErbB2 phosphorylation (anti-pTyr Western blot) (p185^ErbB2 [7]; 1 μM, 24 hours): inhibited
- steady-state p185ErbB2 protein levels (anti-ErbB2 ECD mAb) (p185^ErbB2 [7]; [9]): did not vary
- tyrosine phosphorylation of p185ErbB2 (anti-pTyr mAb) (p185^ErbB2 [7]; [9]): inhibited
- phospho-p185ErbB2 steady state protein levels (p185^ErbB2 [8]): inhibited
- steady state protein levels of total p185ErbB2 (p185^ErbB2 [8]): unchanged
